Data published in ChEMBL document CHEMBL1137170, “Synthesis, biophysical and biological evaluation of 3,6-bis-amidoacridines with extended 9-anilino substituents as potent G-quadruplex-binding telomerase inhibitors” (Bioorg Med Chem Lett, 2004).

Key:
[1] = molecular target: Telomerase reverse transcriptase (Homo sapiens, UniProt O14746); test: Effective concentration against telomerase by TRAP
Nucleic Acid = test: Concentration required for G4-stabilisation in FRET assay; assay type: functional

Sequence of Telomerase reverse transcriptase (O14746 whole entry): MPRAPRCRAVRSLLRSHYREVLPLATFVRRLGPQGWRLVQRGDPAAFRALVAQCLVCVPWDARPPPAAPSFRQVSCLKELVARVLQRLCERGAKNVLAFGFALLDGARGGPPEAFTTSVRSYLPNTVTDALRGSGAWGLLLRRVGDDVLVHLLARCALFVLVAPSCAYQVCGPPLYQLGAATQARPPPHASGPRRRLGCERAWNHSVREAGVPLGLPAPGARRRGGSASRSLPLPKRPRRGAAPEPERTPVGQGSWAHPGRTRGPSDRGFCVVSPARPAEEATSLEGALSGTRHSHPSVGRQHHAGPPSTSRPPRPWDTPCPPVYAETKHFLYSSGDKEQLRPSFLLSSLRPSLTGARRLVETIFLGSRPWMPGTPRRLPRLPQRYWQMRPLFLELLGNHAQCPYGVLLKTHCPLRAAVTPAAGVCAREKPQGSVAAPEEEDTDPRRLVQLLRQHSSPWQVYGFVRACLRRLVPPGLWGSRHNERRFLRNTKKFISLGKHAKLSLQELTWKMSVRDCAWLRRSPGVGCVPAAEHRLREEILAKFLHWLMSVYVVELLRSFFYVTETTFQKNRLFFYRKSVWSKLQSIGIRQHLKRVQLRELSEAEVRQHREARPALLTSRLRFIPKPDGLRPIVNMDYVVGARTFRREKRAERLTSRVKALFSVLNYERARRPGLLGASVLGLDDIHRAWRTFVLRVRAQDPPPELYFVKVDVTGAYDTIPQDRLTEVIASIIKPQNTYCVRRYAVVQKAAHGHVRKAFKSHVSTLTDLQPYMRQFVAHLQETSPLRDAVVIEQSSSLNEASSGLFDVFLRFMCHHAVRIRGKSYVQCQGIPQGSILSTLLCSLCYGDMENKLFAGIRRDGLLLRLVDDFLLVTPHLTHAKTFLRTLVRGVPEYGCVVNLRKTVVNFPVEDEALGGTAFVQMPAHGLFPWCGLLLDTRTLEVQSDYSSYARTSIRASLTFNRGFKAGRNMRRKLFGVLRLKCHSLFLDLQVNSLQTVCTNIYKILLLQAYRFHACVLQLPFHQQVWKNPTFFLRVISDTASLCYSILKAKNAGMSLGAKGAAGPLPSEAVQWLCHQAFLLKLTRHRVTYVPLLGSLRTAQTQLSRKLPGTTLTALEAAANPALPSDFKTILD

Work on `O=C(CCCCC(=O)N1CCCC1)Nc1ccc(Nc2c3ccc(NC(=O)CCN4CCCC4)cc3nc3cc(NC(=O)CCN4CCCC4)ccc23)cc1` yielded an EC50 [1] of 0.318 µM and a Concentration (Nucleic Acid) of 0.72 µM.
`CCN(CC)CCCCCCNC(=O)CCCCC(=O)Nc1ccc(Nc2c3ccc(NC(=O)CCN4CCCC4)cc3nc3cc(NC(=O)CCN4CCCC4)ccc23)cc1` was tested, and the EC50 [1] was 0.08 µM and the Concentration (Nucleic Acid) was 0.49 µM.
`CN1CCN(C(=O)CCCCC(=O)Nc2ccc(Nc3c4ccc(NC(=O)CCN5CCCC5)cc4nc4cc(NC(=O)CCN5CCCC5)ccc34)cc2)CC1` gave an EC50 [1] of 0.165 µM and a Concentration (Nucleic Acid) of 0.59 µM.
Work on `CCN(CC)CCNC(=O)CCCCC(=O)Nc1ccc(Nc2c3ccc(NC(=O)CCN4CCCC4)cc3nc3cc(NC(=O)CCN4CCCC4)ccc23)cc1` yielded an EC50 [1] of 0.098 µM and a Concentration (Nucleic Acid) of 0.46 µM.
Work on `O=C(CCCCC(=O)N1CCOCC1)Nc1ccc(Nc2c3ccc(NC(=O)CCN4CCCC4)cc3nc3cc(NC(=O)CCN4CCCC4)ccc23)cc1` yielded an EC50 [1] of 0.267 µM and a Concentration (Nucleic Acid) of 0.54 µM.
`CN(C)c1ccc(Nc2c3ccc(NC(=O)CCN4CCCC4)cc3nc3cc(NC(=O)CCN4CCCC4)ccc23)cc1` showed an EC50 [1] of 0.113 µM and a Concentration (Nucleic Acid) of 0.72 µM.
